According to US11591325B2, “2-polysubstituted aromatic ring-pyrimidine derivatives, preparation and medical application thereof” (ZHEJIANG UNIVERSITY, priority 2016, dated 2023):
pIC50: −log10 of the molar value. Like-named read-outs stand apart in the source and are kept apart here.

How the values were obtained:
Chk1 protein kinase = target: T1, Chk1 protein kinase (Homo sapiens, UniProt O14757); experiment: Chk1 enzyme inhibitory activity, ADP-Glo kit; assay type: biochemical
T1 sequence (O14757 1-476): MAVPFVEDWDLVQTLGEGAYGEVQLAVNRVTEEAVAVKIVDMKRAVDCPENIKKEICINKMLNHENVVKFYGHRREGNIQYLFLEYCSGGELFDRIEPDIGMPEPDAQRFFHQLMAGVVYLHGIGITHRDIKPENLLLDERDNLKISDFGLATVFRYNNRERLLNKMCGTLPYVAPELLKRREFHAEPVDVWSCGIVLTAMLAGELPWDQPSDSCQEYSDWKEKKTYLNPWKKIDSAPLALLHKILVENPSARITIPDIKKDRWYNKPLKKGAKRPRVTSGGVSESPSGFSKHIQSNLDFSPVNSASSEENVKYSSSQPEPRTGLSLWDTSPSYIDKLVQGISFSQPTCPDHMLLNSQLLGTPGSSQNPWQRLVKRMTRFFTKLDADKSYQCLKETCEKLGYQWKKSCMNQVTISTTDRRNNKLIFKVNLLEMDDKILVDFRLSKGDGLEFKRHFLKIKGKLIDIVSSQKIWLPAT
Method: With the Saurosporine as a positive control, the Chk1 enzyme inhibitory activity (IC50) was evaluated using the ADP-Glo kit. […] The phosphorylation process consumes ATP. After the reaction, ADP-Glo™ Reagent consumes the remaining ATP. The ADP produced during the reaction can be transformed by ADP-Glo Detection Reagent. For ATP, ATP acts as a substrate for the Ultra-Glo™ luciferase catalytic reaction, producing an optical signal. The test compound was dissolved in DMSO to make a 10 mM stock solution and diluted to 12 different concentrations in a certain ratio for testing. […] Incubate for 1 h, stop the reaction by adding 5 μL of ADP-Glo™ Reagent, and incubate for 1 h at 37° C. 10 μL of ADP-Glo Detection Reagent was added, incubated at 37° C. for 30 min, and three parallel wells were set for each sample. […] was measured by luminescence fluorescence microplate reader, and data were calculated using GraphPad Prism 5 software to calculate IC50 values.

[1] = test system: human multiple myeloma cells RPMI 8226; experiment: MTS in vitro proliferation assay, RPMI 8226; assay type: cell-based; conditions: 72 hours, read-out: IC50(μM) RPMI8226
Method: (§1) The cells in the logarithmic growth phase were trypsinized, counted, and seeded at a density of 1×10^4 cells/well in a 96-well plate at 100 μL per well in a 37° C. incubator containing 5% CO2 overnight. For the culture, six concentration gradients were set for each compound, and three sets of duplicate wells were set for each concentration. After the addition, the cells were cultured for 72 hours, and 20 μL of MTS was added. After incubating for 2 hours at 37° C., the absorbance at 490 nm (L1) was measured with a SpectraMAX 340 microplate reader.

[2] = test system: human mantle cell lymphoma cells Mino; experiment: MTS in vitro proliferation assay, Mino; assay type: cell-based; conditions: 72 hours
Method: as §1

[3] = test system: human lymphoma cells Romas; experiment: MTS in vitro proliferation assay, Romas; assay type: cell-based; conditions: 72 hours
Method: as §1

[4] = test system: human mantle cell lymphoma cells Jeko-1; experiment: MTS in vitro proliferation assay, Jeko-1; assay type: cell-based; conditions: 72 hours
Method: as §1

[5] = test system: human acute monocytic leukemia cells MV-4-11; experiment: MTS in vitro proliferation assay, MV-4-11; assay type: cell-based; conditions: MV4-11, 72 hours
Method: as §1

[6] = test system: Human lung cancer cell A549; experiment: MTS in vitro proliferation assay, A549; assay type: cell-based; conditions: 72 hours, average of three experiments
Method: as §1

[7] = test system: human prostate cancer cell LnCAP; experiment: MTS in vitro proliferation assay, LnCAP; assay type: cell-based; conditions: 72 hours, average of three experiments
Method: as §1

[8] = test system: human gastric cancer cell BGC-823; experiment: MTS in vitro proliferation assay, BGC-823; assay type: cell-based; conditions: 72 hours, average of three experiments
Method: as §1

[9] = test system: human colon cancer cell HCT116; experiment: MTS in vitro proliferation assay, HCT116; assay type: cell-based; conditions: HCT-116, 72 hours, average of three experiments
Method: as §1

[10] = test system: human ovarian cancer cell OVCAR-8; experiment: MTS in vitro proliferation assay, OVCAR-8; assay type: cell-based; conditions: 72 hours, average of three experiments
Method: as §1

[11] = test system: human colon cancer cell Colo205; experiment: MTS in vitro proliferation assay, Colo205; assay type: cell-based; conditions: COLO 205, 72 hours, average of three experiments
Method: as §1

[12] = test system: human breast cancer cells MCF-7; experiment: cells; conditions: MCF7, 72 h, read-out: IC50(μM) MCF-7
Method: as §1

[13] = Table 2 >10 μM or <1 μM, read-out: Chk1 IC50, bound with unit
[14] = Table 2 left column pair, numeric cells, read-out: Chk1 (IC50)

Structure (SMILES)	pIC50 (Chk1 protein kinase; [13])	pIC50 (Chk1 protein kinase; [14])	IC50 [1]	IC50 [2]	IC50 [3]	IC50 [4]	IC50 [5]	IC50 [6]	IC50 [7]	IC50 [8]	IC50 [9]	IC50 [10]	IC50 [11]	IC50 [12]
CNc1nc(Nc2cn(C)c(OC3CCNCC3)n2)ncc1-c1cnn(C)c1 [Compound 3, N^4-Methyl-5-(1-methyl-1H-pyrazol-4-yl)-N^2-(1-methyl-2-(piperidin-4-yloxy)imidazol-4-yl)-2,4-diaminopyrimidine]	< 5.00	–	–	–	–	–	–	–	–	–	–	–	–	–
CNc1nc(NC2CN=C(OC3CCNCC3)O2)ncc1-c1cnn(C)c1 (stereo not shown) [Compound 5, N^4-Methyl-5-(1-methyl-1H-pyrazol-4-yl)-N^2-(2-(piperidin-4-yloxy)-4,5-2H-oxazolin-5-yl)-2,4-diaminopyrimidine]	< 5.00	–	–	–	–	–	–	–	–	–	–	–	–	–
CNc1nc(Nc2cnc(C#N)c(OC3CCCNC3)c2)ncc1-c1cnn(C)c1 (stereo not shown) [Compound 32, N^4-Methyl-5-(1-methyl-1H-pyrazol-4-yl)-N^2-(2-cyano-3-(piperidin-3-yloxy)pyridin-5-yl)-2,4-diaminopyrimidine]	–	–	8.18 µM	0.859 µM	0.789 µM	0.189 µM	0.064 µM	5.17 µM	6 µM	7.64 µM	4.18 µM	–	–	–
CNc1nc(Nc2cnc(C#N)c(O[C@@H]3CCCNC3)c2)ncc1-c1cnn(C)c1 [Compound 35, (R)-N^4-methyl-5-(1-methyl-1H-pyrazol-4-yl)-N^2-(2-cyano-3-(piperidin-3-yloxy)pyridin-5-yl)-2,4-diaminopyrimidine]	–	–	1.27 µM	0.647 µM	0.356 µM	0.339 µM	0.053 µM	2.16 µM	2.17 µM	4.81 µM	0.98 µM	0.789 µM	0.663 µM	1.01 µM
CNc1nc(Nc2cnc(C#N)c(O[C@H]3CCCNC3)c2)ncc1-c1cnn(C)c1 [Compound 36, (S)-N^4-methyl-5-(1-methyl-1H-pyrazol-4-yl)-N^2-(2-cyano-3-(piperidin-3-yloxy)pyridin-5-yl)-2,4-diaminopyrimidine]	–	–	2.49 µM	0.956 µM	0.649 µM	0.548 µM	0.072 µM	5.74 µM	4.89 µM	–	2.55 µM	4.18 µM	2.18 µM	–
CNc1nc(Nc2cnc(C#N)c(O[C@H](C)CN(C)C)c2)ncc1-c1cnn(C)c1 [Compound 41, (R)-N^4-methyl-5-(1-methyl-1H-pyrazol-4-yl)-N^2-(2-cyano-3-(1-dimethylaminopropyl-2-oxy)pyridin-5-yl)-2,4-diaminopyrimidine]	–	–	0.945 µM	0.473 µM	0.119 µM	0.094 µM	0.034 µM	2.17 µM	2.62 µM	5.17 µM	1.31 µM	1.19 µM	0.993 µM	1.01 µM
CNc1nc(Nc2cnc(C#N)c(O[C@@H](C)CN(C)C)c2)ncc1-c1cnn(C)c1 [Compound 42, (S)-N^4-methyl-5-(1-methyl-1H-pyrazol-4-yl)-N^2-(2-cyano-3-(1-dimethylaminopropyl-2-oxy)pyridin-5-yl)-2,4-diaminopyrimidine]	–	–	0.814 µM	0.227 µM	0.218 µM	0.137 µM	0.092 µM	> 10 µM	5.74 µM	–	4.19 µM	2.17 µM	1.03 µM	–

Now from value to compound, other results behind:

pIC50 (Chk1 protein kinase; [13])	pIC50 (Chk1 protein kinase; [14])	Structure (SMILES)	IC50 [1]	IC50 [2]	IC50 [3]	IC50 [4]	IC50 [5]	IC50 [6]	IC50 [7]	IC50 [8]	IC50 [9]	IC50 [10]	IC50 [11]	IC50 [12]
< 5.00	–	CNc1nc(Nc2cc(OC3CCNCC3)n(C)n2)ncc1-c1cnn(C)c1 [Compound 1, N^4-methyl-5-(1-methyl-1H-pyrazol-4-yl)-N^2-(1-methyl-5-(piperidin-4-yloxy)pyrazol-3-yl)-2,4-diaminopyrimidine]	–	–	–	–	–	–	–	–	–	–	–	–
< 5.00	–	CNc1nc(Nc2cc(OC3CCNCC3)no2)ncc1-c1cnn(C)c1 [Compound 2, N^4-Methyl-5-(1-methyl-1H-pyrazol-4-yl)-N^2-(3-(piperidin-4-yloxy)isoxazol-5-yl)-2,4-diaminopyrimidine]	–	–	–	–	–	–	–	–	–	–	–	–
< 5.00	–	CNc1nc(Nc2cc(OC3CCNCC3)ns2)ncc1-c1cnn(C)c1 [Compound 4, N^4-Methyl-5-(1-methyl-1H-pyrazol-4-yl)-N^2-(2-(piperidin-4-yloxy)isothiazol-5-yl)-2,4-diaminopyrimidine]	–	–	–	–	–	–	–	–	–	–	–	–
< 5.00	–	CNc1nc(Nc2cnc(OC3CCNCC3)s2)ncc1-c1cnn(C)c1 [Compound 6, N^4-Methyl-5-(1-methyl-1H-pyrazol-4-yl)-N^2-(2-(piperidin-4-yloxy)thiazol-5-yl)-2,4-diaminopyrimidine]	–	–	–	–	–	–	–	–	–	–	–	–
–	8.06	COc1nc(Nc2cnc(C#N)c(OCC3CCNCC3)c2)ncc1-c1cccc(F)c1 [Compound 17, 4-methoxy-5-(3-fluorophenyl)-N-(2-cyano-3-(piperidin-4-methyl)oxypyridin-5-yl)-2-aminopyrimidine]	3.29 µM	0.495 µM	0.348 µM	0.117 µM	0.05 µM	4.24 µM	> 10 µM	> 10 µM	1.9 µM	0.22 µM	0.878 µM	–
–	8.74	COc1nc(Nc2cnc(C#N)c(OCC3CCNCC3)c2)ncc1-c1cnn(C)c1 [Compound 18, 4-methoxy-5-(1-methyl-1H-pyrazol-4-yl)-N-(2-cyano-3-(piperidin-4-methyl)oxypyridin-5-yl)-2-aminopyrimidine]	–	–	–	–	0.036 µM	3.17 µM	7 µM	7.11 µM	1.77 µM	2.14 µM	1.01 µM	–
> 6.00	–	N#Cc1ncc(Nc2ncc(C(F)(F)F)cn2)cc1OC1CCCNC1 (stereo not shown) [Compound 45, 5-trifluoromethyl-N-(2-cyano-3-(piperidin-3-oxy)pyridin-5-yl)-2-aminopyrimidine]	–	–	–	–	–	–	–	–	–	–	–	–
> 6.00	–	COc1nc(Nc2cnc(C#N)c(OCC3CCNCC3)c2)ncc1C(F)(F)F [Compound 46, 4-methoxy-5-trifluoromethyl-N-(2-cyano-3-(piperidin-4-methyl)oxypyridin-5-yl)-2-aminopyrimidine]	–	–	–	–	–	–	–	–	–	–	–	–
> 6.00	–	CNc1nc(Nc2cnc(C#N)c(O[C@@H]3CCCNC3)c2)ncc1C(F)(F)F [Compound 47, (R)—N^4-methyl-5-trifluoromethyl-N^2-(2-cyano-3-(piperidin-3-oxy)pyridin-5-yl)-2,4-diaminopyrimidine]	–	–	–	–	–	–	–	–	–	–	–	–
